The supplement of paper PMC10307832

Key:
Test in all cases: relative viability (nuclei count vs DMSO), 5 days (fraction); higher = more cells survive
[1] = compound: Cc1ccc(C(=O)Nc2ccc(CN3CCN(C)CC3)c(C(F)(F)F)c2)cc1C#Cc1cnc2cccnn12 [Ponatinib] + N=C(N)NC(=N)NCCc1ccccc1 [Phenformin] (partner 250 µM)
How it was run: (§1)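 Nuclei were stained with Hoechst during a one-step fixation (final 0.05% Triton X-100, 1% formaldehyde, 1 ug/ml Hoechst) carried out 5 days after dosing, then counted on 4× images. The cells, lung cancer lines in 1536-well plates, had been dosed by pin tool the day after seeding with one drug alone or a fixed anchor-drug dose plus five library-drug doses (not always all listed) in √10 steps. Relative viability is the nuclei count in treated wells divided by that in vehicle wells, and each value is the median of duplicate plates.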

[2] = compound: Cc1ccc(C(=O)Nc2ccc(CN3CCN(C)CC3)c(C(F)(F)F)c2)cc1C#Cc1cnc2cccnn12 [Ponatinib] + CCNC(=O)c1noc(-c2cc(C(C)C)c(O)cc2O)c1-c1ccc(CN2CCOCC2)cc1 [Luminespib] (partner 0.01 µM)
How it was run: as §1

[3] = compound: Cc1ccc(C(=O)Nc2ccc(CN3CCN(C)CC3)c(C(F)(F)F)c2)cc1C#Cc1cnc2cccnn12 [Ponatinib] + Nc1ncn([C@H]2C[C@H](O)[C@@H](CO)O2)c(=O)n1 [Decitabine] (partner 2 µM)
How it was run: as §1

[4] = compound: Cc1ccc(Nc2nccc(N(C)c3ccc4c(C)n(C)nc4c3)n2)cc1S(N)(=O)=O [Pazopanib] + C[C@]1(O)C[C@@H](c2nc(-c3ccc4ccc(-c5ccccc5)nc4c3)c3c(N)nccn32)C1 [Linsitinib] (partner 1 µM)
How it was run: as §1

Cell Line | relative viability ([1]; first compound 0.002 µM) | relative viability ([1]; first compound 0.006325 µM) | relative viability ([1]; first compound 0.06325 µM) | relative viability ([1]; first compound 0.2 µM) | relative viability ([2]; first compound 0.002 µM) | relative viability ([2]; first compound 0.006325 µM) | relative viability ([2]; first compound 0.06325 µM) | relative viability ([2]; first compound 0.2 µM) | relative viability ([3]; first compound 0.002 µM) | relative viability ([3]; first compound 0.006325 µM) | relative viability ([3]; first compound 0.06325 µM) | relative viability ([3]; first compound 0.2 µM) | relative viability ([4]; first compound 0.01 µM) | relative viability ([4]; first compound 0.03162 µM) | relative viability ([4]; first compound 0.1 µM) | relative viability ([4]; first compound 0.3162 µM) | relative viability ([4]; first compound 1 µM)
NCI-H1437 | 0.293 | 0.334 | 0.322 | 0.302 | 1.18 | 1.09 | 1.25 | 1.09 | 0.498 | 0.548 | 0.606 | 0.593 | 1.04 | 1.07 | 0.973 | 1.04 | 1.05
NCI-H520 | 0.392 | 0.552 | 0.291 | 0.18 | 0.207 | 0.209 | 0.19 | 0.223 | 0.426 | 0.483 | 0.45 | 0.411 |  | 1.05 | 1 | 0.946 | 1.05
NCI-H1666 | 0.564 | 0.538 | 0.564 | 0.585 | 1.02 | 0.998 | 1.09 | 0.986 | 0.752 | 0.745 | 0.812 | 0.766 | 1.15 | 0.857 | 0.909 | 0.767 | 1.07
NCI-H1651 | 0.301 | 0.373 | 0.299 | 0.265 | 0.986 | 0.864 | 0.915 | 1.05 | 0.613 | 0.704 | 0.615 | 0.665 | 1.11 | 0.901 | 0.886 | 0.982 | 1.08
NCI-H1755 | 0.561 | 0.599 | 0.614 | 0.565 | 0.249 | 0.696 | 0.561 | 0.359 | 0.701 | 0.73 | 0.719 | 0.639 | 0.934 | 0.995 | 1.01 | 0.967 | 1.01
NCI-H727 | 0.537 | 0.507 | 0.605 | 0.532 | 0.321 | 0.444 | 0.516 | 0.261 | 0.909 | 1.01 | 0.838 | 0.933 | 0.311 | 0.336 | 0.35 | 0.237 | 0.245
HARA | 0.446 | 0.437 | 0.44 | 0.388 | 0.683 | 0.948 | 0.749 | 0.682 | 0.486 | 0.632 | 0.568 | 0.665 | 0.916 | 0.862 | 1 | 1.03 | 1.03
NCI-H647 | 0.413 | 0.626 | 0.699 | 0.42 | 0.136 | 0.225 | 0.158 | 0.234 | 0.319 | 0.369 | 0.429 | 0.407 | 1.17 | 1.4 | 1.17 | 1.23 | 1.11
NCI-H23 | 0.759 | 0.756 | 0.815 | 0.593 |  | 0.22 | 0.211 | 0.196 | 0.286 | 0.313 | 0.332 | 0.297 | 0.505 | 0.629 | 0.556 | 0.567 | 0.842
LCLC-97TM1 | 0.489 | 0.432 | 0.467 | 0.411 | 0.677 | 0.704 | 0.647 | 0.439 | 0.205 | 0.242 | 0.214 | 0.248 |  | 0.229 | 0.154 | 0.2 | 0.211
EPLC-272H | 0.305 | 0.336 | 0.292 | 0.316 | 0.323 | 0.255 | 0.521 | 0.199 | 0.334 | 0.399 | 0.416 | 0.326 | 0.98 | 1.13 | 1.25 | 1.26 | 1.17
NCI-H1915 | 0.332 | 0.363 | 0.371 | 0.356 | 0.754 | 0.769 | 0.805 | 0.672 | 0.244 | 0.274 | 0.246 | 0.257 | 1.12 | 1.14 | 1.08 | 1.03 | 0.994
NCI-H3122 | 0.301 | 0.378 | 0.384 | 0.356 | 0.113 | 0.0854 | 0.128 | 0.109 | 0.457 | 0.545 | 0.472 | 0.411 | 0.969 | 1.06 | 0.998 | 1.12 | 0.945
NCI-H441 | 0.818 | 0.866 | 0.941 | 0.697 | 0.359 | 0.354 | 0.305 | 0.315 | 0.228 | 0.246 | 0.271 | 0.267 | 0.536 | 0.528 | 0.558 | 0.5 | 0.612
NCI-H358 | 0.375 | 0.46 | 0.4 | 0.299 | 0.406 | 0.418 | 0.597 | 0.262 | 0.193 | 0.326 | 0.221 | 0.204 | 0.875 | 0.626 | 0.82 | 0.993 | 0.821
NCI-H1793 | 0.33 | 0.324 | 0.397 | 0.326 | 0.479 | 0.212 | 0.147 | 0.184 | 0.451 | 0.526 | 0.561 | 0.499 |  | 0.871 | 0.835 | 0.83 | 0.905
SK-MES-1 | 0.676 | 0.65 | 0.716 | 0.548 | 0.761 | 0.89 | 1.01 | 0.745 | 0.392 | 0.334 | 0.419 | 0.372 | 0.983 | 1.01 | 1.12 | 1.15 | 1.02
PC-14 | 0.443 | 0.619 | 0.665 | 0.605 | 0.127 | 0.147 | 0.195 | 0.138 | 0.214 | 0.222 | 0.232 | 0.214 | 0.971 | 1 | 0.961 | 0.985 | 1
